GI50 and IC50 data for 21 compounds are collected here from patent US20230183243A1, “HETEROARYL DERIVATIVES AND PHARMACEUTICAL COMPOSITION COMPRISING SAME AS ACTIVE INGREDIENT” (VORONOI INC., priority 2019, published 2023).

One assay relates to MDA-MB-231 cells. The experiment in a line: Inhibition of proliferation of triple-negative breast cancer cells, CellTiter-Glo. The following applies: Homo sapiens, 120 h; MDA-MB-231, cultured for 5 days. It counts as cell-based. The method, then:
Specifically, the following test was performed in order to evaluate the inhibitory activity of the compound according to the present invention against the cell proliferation in triple-negative breast cancer cells (TNBCs).
Cells were seeded in 180 μL of a culture broth at a density of 2,000 to 3,000 cells/well in a white clear bottom 96-well plate (Corning) according to the growth ability of each cell, and then cultured for 24 hours under conditions of 5% CO2 and 37° C. Thereafter, the compound was prepared by diluting a 10 mM stock solution three-fold with 100% DMSO at a total of 12 concentrations so that a peak concentration of the compound was in a range of 10 mM to 0.05 μM, and the diluted compound was then diluted in each cell culture medium so that a final concentration of the compound was in a range of 100 μM to 0.5 nM. 20 μL of a diluted solution diluted with a medium was added to the cell solution in which cells were seeded in the 96-well plate on the previous day so that a final concentration of the diluted solution was in a range of 10 μM to 0.05 nM. Each of the cells was cultured for 5 days. To check cell viability, a mixture provided in a CellTiter-Glo® Luminescent Cell Viability Assay Kit (Promega) was added to each of the cultured cell media, and cultured for another 10 minutes under a condition of 37° C. Then, a degree of luminescence (fluorescence) was measured. A degree of inhibition of the cell growth according to the treatment concentration of each of the compounds was calculated based on the fluorescence of the solvent control cells which were not treated with the compound.
On the technique in general: ATP-based viability assays read luminescence as a measure of living cells.

Another assay addresses T1, TTK (Homo sapiens, UniProt P33981).
T1 sequence (P33981 1-857): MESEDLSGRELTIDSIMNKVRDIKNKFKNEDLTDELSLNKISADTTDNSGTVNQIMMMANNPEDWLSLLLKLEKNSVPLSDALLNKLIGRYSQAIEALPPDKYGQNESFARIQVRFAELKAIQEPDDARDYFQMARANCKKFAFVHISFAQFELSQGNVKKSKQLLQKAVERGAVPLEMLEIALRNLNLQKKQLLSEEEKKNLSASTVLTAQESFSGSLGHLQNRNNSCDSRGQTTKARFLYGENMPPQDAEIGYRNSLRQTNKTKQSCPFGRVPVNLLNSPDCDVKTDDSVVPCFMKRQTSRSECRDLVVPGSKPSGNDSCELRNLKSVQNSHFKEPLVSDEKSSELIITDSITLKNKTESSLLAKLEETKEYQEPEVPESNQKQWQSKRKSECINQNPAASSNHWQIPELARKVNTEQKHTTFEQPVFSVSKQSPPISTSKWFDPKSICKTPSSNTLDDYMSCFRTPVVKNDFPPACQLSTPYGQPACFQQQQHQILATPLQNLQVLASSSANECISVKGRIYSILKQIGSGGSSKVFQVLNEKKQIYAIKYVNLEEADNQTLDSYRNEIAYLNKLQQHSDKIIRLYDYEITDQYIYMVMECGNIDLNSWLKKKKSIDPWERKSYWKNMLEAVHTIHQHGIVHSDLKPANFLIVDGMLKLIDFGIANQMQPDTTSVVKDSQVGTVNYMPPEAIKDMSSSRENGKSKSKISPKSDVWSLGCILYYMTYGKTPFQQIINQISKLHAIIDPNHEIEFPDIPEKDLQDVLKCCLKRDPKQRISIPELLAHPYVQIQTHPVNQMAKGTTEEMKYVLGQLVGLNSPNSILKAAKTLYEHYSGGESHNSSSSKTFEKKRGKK
The experiment in a line: TTK enzyme activity, ADP-Glo kinase assay. Format: biochemical. Also noted: purchased SignalChem T20-10G. Conditions: purified human TTK, ATP 10 μM, 25° C., 2 hours. The method, then:
To evaluate an inhibitory activity of the compound according to the present invention against TTK (MPS1), an experiment was performed as follows.
Each of the Example compounds was reacted with a purified human TTK (SignalChem #T20-10G) enzyme to evaluate an ability to inhibit an enzyme using a method as described below. A composition of 40 mM Tris-HCl (pH 7.4), 20 mM MgCl2, 0.5 mg/mL BSA, and 50 μM DTT was used as a reaction buffer, and all reactions of test substances were performed in the reaction buffer. […] In the test, purified ATP (10 μM) and an enzyme substrate (0.2 μg) were reacted with a human TTK (25 ng) enzyme at 25° C. for 2 hours, and the enzyme activity was determined using an in vitro ADP-Glo™ kinase assay (Promega). […] The degree of inhibition of the enzyme activity according to the treatment concentration of each of the compounds was calculated based on the fluorescence of the enzyme activity of the solvent control which was not treated with the compound.
For orientation: ADP-Glo first removes unused ATP, then detects ADP through luciferase.

Structures are written as SMILES.

Consider `CCC(C)Nc1nc(Nc2ccc(N3CCCC3=O)cc2OC)nc2[nH]cc(C#N)c12` (stereo in doubt) [Example 68, (S)-4-(sec-butylamino)-2-((2-methoxy-4-(2-oxopyrrolidin-1-yl)phenyl)amino)-7H-pyrrolo[2,3-d] pyrimidine-5-carbonitrile], for which the GI50 – broadly, the concentration giving 50% growth inhibition – in the assay on MDA-MB-231 cells was less than 100 nM. For the same compound, the 50% inhibitory concentration (IC50) (as a rule, the midpoint of a concentration-inhibition curve) against TTK was less than 50 nM.

In the assay with MDA-MB-231 cells, `CC[C@H](C)Nc1nc(Nc2ccc(-c3ccnn3C)cc2OC)nc2[nH]cc(C#N)c12` [Example 1, (S)-4-(sec-butylamino)-2-((2-methoxy-4-(1-methyl-1H-pyrazol-5-yl)phenyl)amino)-7H-pyrrolo[2,3-d] pyrimidine-5-carbonitrile 2,2,2-trifluoroacetate] came in with a GI50 of less than 100 nM. This compound also yielded an IC50 at TTK of less than 50 nM.

`COc1cc(-c2ccn(C)n2)ccc1Nc1nc(NC2CCCC2)c2c(C#N)c[nH]c2n1` [Example 2, 4-(cyclopentylamino)-2-((2-methoxy-4-(1-methyl-1H-pyrazol-3-yl)phenyl)amino)-7H-pyrrolo[2,3-d] pyrimidine-5-carbonitrile] showed a GI50 in the assay on MDA-MB-231 cells of less than 100 nM. Moreover, the IC50 on TTK was less than 50 nM.

In turn, `COc1cc(N2CCOC2=O)ccc1Nc1nc(NC2CCCCC2)c2c(C#N)c[nH]c2n1` [Example 3, 4-(cyclohexylamino)-2-((2-methoxy-4-(2-oxooxazolidin-3-yl)phenyl)amino)-7H-pyrrolo[2,3-d] pyrimidine-5-carbonitrile] gave a concentration for 50% growth inhibition (GI50) with MDA-MB-231 cells of 100 to 1000 nM. This compound also registered a concentration for half-maximal inhibition (IC50) against TTK of less than 50 nM.

Take `COc1cc(-c2ccnn2C)ccc1Nc1nc(NC2CCCCC2)c2cc[nH]c2n1` [Example 4, N^4-cyclohexyl-N^2-(2-methoxy-4-(1-methyl-1H-pyrazol-5-yl)phenyl)-7H-pyrrolo[2,3-d] pyrimidine-2,4-diamine]: the GI50 in the assay with MDA-MB-231 cells was 100 to 1000 nM.

`COc1cc(-c2ccnn2C)ccc1Nc1nc(NC2CCCCC2)c2c(Cl)c[nH]c2n1` [Example 5, 5-chloro-N^4-cyclohexyl-N^2-(2-methoxy-4-(1-methyl-1H-pyrazol-5-yl)phenyl)-7H-pyrrolo[2,3-d] pyrimidine-2,4-diamine] gave a concentration for 50% growth inhibition (GI50) in the assay on MDA-MB-231 cells greater than 1000 nM.

With `COc1cc(-c2ccnn2C)ccc1Nc1nc(NC2CCCCC2)c2c(C(F)(F)F)c[nH]c2n1` [Example 6, N^4-cyclohexyl-N^2-(2-methoxy-4-(1-methyl-1H-pyrazol-5-yl)phenyl)-5-(trifluoromethy1)-7H-pyrrolo[2,3-d] pyrimidine-2,4-diamine], the GI50 with MDA-MB-231 cells is greater than 1000 nM.

Take `COc1cc(-c2ccnn2C)ccc1Nc1nc(NCC2CCCC2)c2c(C#N)c[nH]c2n1` [Example 8, 4-((cyclopentylmethyl)amino)-2-((2-methoxy-4-(1-methyl-1H-pyrazol-5-yl)phenyl)amino)-7H-pyrrolo[2,3-d] pyrimidine-5-carbonitrile]: the IC50 at TTK was in the range of 50 to 200 nM.

In turn, `CNc1nc(Nc2ccc(-c3ccnn3C)cc2OC)nc2[nH]cc(C#N)c12` [Example 9, 2-((2-methoxy-4-(1-methyl-1H-pyrazol-5-yl)phenyl)amino)-4-(methylamino)-1H-pyrrolo[2,3-d] pyrimidine-5-carbonitrile] returned a GI50 in the assay on MDA-MB-231 cells greater than 1000 nM. This compound showed an IC50 on TTK of less than 50 nM.

For the compound `CC[C@@H](C)Nc1nc(Nc2ccc(-c3ccnn3C)cc2OC)nc2[nH]cc(C#N)c12` [Example 10, (R)4-(sec-butylamino)-2-((2-methoxy-4-(1-methyl-1H-pyrazol-5-yl)phenyl)amino)-7H-pyrrolo[2,3-d] pyrimidine-5-carbonitrile 2,2,2-trifluoroacetate], the GI50 with MDA-MB-231 cells is less than 100 nM. In addition, the IC50 against TTK is less than 50 nM.

In turn, `COCCNc1nc(Nc2ccc(-c3ccnn3C)cc2OC)nc2[nH]cc(C#N)c12` [Example 13] showed a half-inhibitory concentration (IC50) against TTK of less than 50 nM.

Turning to `COc1cc(-c2ccnn2C)ccc1Nc1nc(NC2CCOCC2)c2c(C#N)c[nH]c2n1` [Example 15, 2-((2-methoxy-4-(1-methyl-1H-pyrazol-5-yl)phenyl)amino)-4-((tetrahydro-2H-pyran-4-yl)amino)-7H-pyrrolo[2,3-d] pyrimidine-5-carbonitrile], the IC50 at TTK was less than 50 nM.

For the compound `COc1cc(-n2cc(C)nc2C)ccc1Nc1nc(NC2CCCCC2)c2c(C#N)c[nH]c2n1` [Example 34, 4-(cyclohexylamino)-2-((4-(2,4-dimethyl-1H-imidazol-1-yl)-2-methoxyphenyl)amino)-7H-pyrrolo[2,3-d] pyrimidine-5-carbonitrile], in the assay on MDA-MB-231 cells, the concentration for 50% growth inhibition (GI50) was less than 100 nM.

In turn, `CCOc1cc(-c2ccnn2C)ccc1Nc1nc(NC2CCCCC2)c2c(C#N)c[nH]c2n1` [Example 36, 4-(cyclohexylamino)-2-((2-ethoxy-4-(1-methyl-1H-pyrazol-5-yl)phenyl)amino)-7H-pyrrolo[2,3-d] pyrimidine-5-carbonitrile] showed a 50% growth inhibitory concentration (GI50) with MDA-MB-231 cells of less than 100 nM.

`Cn1nccc1-c1ccc(Nc2nc(NC3CCCCC3)c3c(C#N)c[nH]c3n2)cc1` [Example 37, 4-(cyclohexylamino)-2-((4-(1-methyl-1H-pyrazol-5-yl)phenyl)amino)-7H-pyrrolo[2,3-d] pyrimidine-5-carbonitrile]: the GI50 in the assay with MDA-MB-231 cells is less than 100 nM.

Regarding `COc1cc(-c2ccnn2C)ccc1Nc1nc(OC2CCCCC2)c2c(C#N)c[nH]c2n1` [Example 45, 4-(cyclohexyloxy)-2-((2-methoxy-4-(1-methyl-1H-pyrazol-5-yl)phenyl)amino)-7H-pyrrolo[2,3-d] pyrimidine-5-carbonitrile], the GI50 in the assay on MDA-MB-231 cells was less than 100 nM.

In the case of `COc1cc(N2CCCC2=O)ccc1Nc1nc(NC2CCOCC2)c2c(C#N)c[nH]c2n1` [Example 74, 2-((2-methoxy-4-(2-oxopyrrolidin-1-yl)phenyl)amino)-4-((tetrahydro-2H-pyran-4-yl)amino)-7H-pyrrolo[2,3-d] pyrimidine-5-carbonitrile], the concentration for 50% growth inhibition (GI50) with MDA-MB-231 cells was greater than 1000 nM.

On to `COc1cc(N2CCCC2=O)ccc1Nc1nc(NCC(C)(C)C)c2c(C#N)c[nH]c2n1` [Example 77, 2-((2-methoxy-4-(2-oxopyrrolidin-1-yl)phenyl)amino)-4-(neopentylamino)-7H-pyrrolo[2,3-d] pyrimidine-5-carbonitrile], for which the 50% growth inhibitory concentration (GI50) in the assay on MDA-MB-231 cells was 100 to 1000 nM.

In turn, `CCOc1cc(N2CCCC2=O)ccc1Nc1nc(NC2CCCCC2)c2c(C#N)c[nH]c2n1` [Example 78, 4-(cyclohexylamino)-2-((2-ethoxy-4-(2-oxopyrrolidin-1-yl)phenyl)amino)-7H-pyrrolo[2,3-d] pyrimidine-5-carbonitrile] yielded a GI50 in the assay on MDA-MB-231 cells of 100 to 1000 nM.

In turn, `N#Cc1c[nH]c2nc(Nc3ccc(N4CCCC4=O)cc3)nc(NC3CCCCC3)c12` [Example 80, 4-(cyclohexylamino)-2-((4-(2-oxopyrrolidin-1-yl)phenyl)amino)-7H-pyrrolo[2,3-d] pyrimidine-5-carbonitrile] had a concentration for 50% growth inhibition (GI50) in the assay on MDA-MB-231 cells of less than 100 nM.

`COc1cc(N2CCOCC2=O)ccc1Nc1nc(NC2CCCCC2)c2c(C#N)c[nH]c2n1` [Example 81, 4-(cyclohexylamino)-2-((2-methoxy-4-(3-oxomorpholino)phenyl)amino)-7H-pyrrolo[2,3-d] pyrimidine-5-carbonitrile] yielded a GI50 with MDA-MB-231 cells of less than 100 nM.
